Legend:
PC-3 cells = test: Cell viability analysis (MTT) in PC-3 cells; type: cell-based; conditions: Homo sapiens, PC-3, PC-3 cells, read-out: IC50 (μM) PC3
Description: Cell viability analysis. The effect of individual test agents on cell viability was assessed by using the MTT {[3-(4,5-dimethylthiazol-2-yl)-2,5-diphenyl-2H-tetrazolium bromide]} assay in six to twelve replicates. […] Controls received DMSO vehicle at a concentration equal to that in drug-treated cells. […] Supernatants were removed from the wells, and the reduced MTT dye was solubilized in 200 μl/well DMSO. Absorbance at 570 nm was determined on a plate reader.
(§1) Determination of IC50 values. Data from cell viability and FP assays were analyzed by using the CalcuSyn software (Biosoft, Ferguson, Mo.) to determine IC50 values, in which the calculation was based on the medium effect equation (18), i.e., Log(fa/fu)=m log(D)−m log(Dm) (equation 1), where fa and fu denote fraction affected and unaffected, respectively; m represents the Hill-type coefficient signifying the sigmoidicity of the dose-effect curve; D and Dm are the dose used and IC50, respectively.

[1] = WB (IC50 for WB, Tables 1-9); type: cell-based; conditions: marker, cell line and unit inferred
Description: Immunoblotting. Cells in T-75 flasks were collected by scraping, and suspended in 60 μl of phosphate-buffered saline (PBS). Two μl of the suspension was taken for protein analysis using the Bradford assay kit (Bio-Rad, Hercules, Calif.). To the remaining solution was added the same volume of 2×SDS-PAGE sample loading buffer (100 mM Tris-HCl, pH 6.8, 4% SDS, 5% β-mercaptoethanol 20% glycerol, and 0.1% bromophenol blue). The mixture was sonicated briefly, and boiled for 5 min. Equal amounts of proteins were loaded onto 10% SDS-PAGE gels.
After electrophoresis, protein bands were transferred to nitrocellulose membranes in a semidry transfer cell. The transblotted membrane was washed twice with Tris-buffered saline (TBS) containing 0.1% Tween 20 (TBST). After blocking with TBST containing 5% nonfat milk for 40 min, the membrane was incubated with the appropriate primary antibody in TBST-1% nonfat milk at 4° C. overnight. All primary antibodies were diluted 1:1000 in 1% nonfat milk-containing TBST. After treatment with the primary antibody, the membrane was washed three times with TBST for a total of 15 min, followed by incubation with goat anti-rabbit or anti-mouse IgG-horseradish peroxidase conjugates (diluted 1:5000) for 1 h at room temperature and three washes with TBST for a total of 1 h. The immunoblots were visualized by enhanced chemiluminescence.

[2] = MTT assay (IC50 for MTT, Tables 1-9); type: cell-based; conditions: cell line and unit inferred
Description: Cell viability analysis. The effect of individual test agents on cell viability was assessed by using the MTT {[3-(4,5-dimethylthiazol-2-yl)-2,5-diphenyl-2H-tetrazolium bromide]} assay in six to twelve replicates. Cells were seeded and incubated in 96-well, flat-bottomed plates in serum-free media for 24 h, and were exposed to various concentrations of test agents dissolved in DMSO (final concentration, 0.1%) in serum-free RPMI 1640 medium for different time intervals. Controls received DMSO vehicle at a concentration equal to that in drug-treated cells. The medium was removed, replaced by 200 μl of 0.5 mg/ml of MTT in 10% FBS-containing RPMI-1640 medium, and cells were incubated in the CO2 incubator at 37° C. for 2 h. Supernatants were removed from the wells, and the reduced MTT dye was solubilized in 200 μl/well DMSO. Absorbance at 570 nm was determined on a plate reader.
as §1

Bcl-xL = target: T1, Bcl-xL (Homo sapiens, UniProt Q07817); test: Competitive fluorescence polarization assay, displacement of Flu-BakBH3 peptide from Bcl-xL; type: binding; conditions: unit inferred; read-out: IC50 for inhibiting BH3-mediated protein interactions (Bcl-xL)
T1 construct: fused on or other part: His tag
T1 sequence (Q07817 1-209 limits assumed): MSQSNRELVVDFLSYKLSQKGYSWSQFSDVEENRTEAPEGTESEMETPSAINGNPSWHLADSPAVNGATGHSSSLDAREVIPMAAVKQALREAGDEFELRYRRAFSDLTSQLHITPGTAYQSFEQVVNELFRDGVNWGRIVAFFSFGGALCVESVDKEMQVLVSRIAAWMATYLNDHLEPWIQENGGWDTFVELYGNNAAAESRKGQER
Description: (§2) Competitive Fluorescence Polarization Assay. The binding affinity of the test agent to Bcl-2 and Bcl-xL was analyzed by a competitive fluorescence polarization assay, in which the ability of the agent to displace the binding of a Bak BH3-domain peptide to either Bcl-2 or Bcl-xL was determined. Flu-BakBH3, a Bak-BH3 peptide labeled at the N-terminus with fluorescein, was purchased from Genemed Synthesis (San Francisco, Calif.). C-Terminal-truncated, His-tagged Bcl-xL was purchased from EMD Biosciences (San Diego, Calif.), and soluble GST-fused Bcl-2 was obtained from Santa Cruz (Santa Cruz, Calif.). The KD determination was carried out in a dual-pathlength quartz cell with readings taken at […] at room temperature using a luminescence spectrometer according to an established procedure (17). Determination of IC50 values. Data from cell viability and FP assays were analyzed by using the CalcuSyn software (Biosoft, Ferguson, Mo.) to determine IC50 values, in which the calculation was based on the medium effect equation (18), i.e., Log(fa/fu)=m log(D)−m log(Dm) (equation 1), where fa and fu denote fraction affected and unaffected, respectively; m represents the Hill-type coefficient signifying the sigmoidicity of the dose-effect curve; D and Dm are the dose used and IC50, respectively.

Bcl-2 = Bcl-2 (Homo sapiens, UniProt P10415); test: Competitive fluorescence polarization assay, displacement of Flu-BakBH3 peptide from Bcl-2; type: binding; conditions: unit inferred; read-out: IC50 for inhibiting BH3-mediated protein interactions (Bcl-2)
Bcl-2, sequence (P10415 whole entry): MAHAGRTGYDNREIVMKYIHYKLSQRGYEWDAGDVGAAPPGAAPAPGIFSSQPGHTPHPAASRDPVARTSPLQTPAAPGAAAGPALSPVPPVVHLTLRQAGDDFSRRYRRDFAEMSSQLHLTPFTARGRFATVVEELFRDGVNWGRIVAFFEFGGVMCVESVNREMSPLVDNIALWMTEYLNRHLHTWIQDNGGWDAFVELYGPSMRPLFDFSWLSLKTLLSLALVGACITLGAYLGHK
Description: as §2

IC50 (PC-3 cells) [µM]	IC50 [1] [µM]	IC50 (Bcl-xL) [µM]	IC50 (Bcl-2) [µM]	SMILES	IC50 [2] [µM]
> 50	2.7	–	–	CC(C)=CCOc1c(C)c(C)c2c(c1C)CCC(C)(COc1ccc(/C=C3\SC(=O)NC3=O)cc1[N+](=O)[O-])O2 (centres unmarked) [TG-35]	–
> 50	> 7.5	–	–	CC(C)=CCOc1c(C)c(C)c2c(c1C)CCC(C)(COc1ccc(C=C(C#N)C#N)cc1Br)O2 (centres unmarked) [TG-36]	> 50
6 ± 0.7	> 7.5	–	–	CC(C)=CCOc1c(C)c(C)c2c(c1C)CCC(C)(COc1ccc(/C=C/C(=O)O)cc1Br)O2 (centres unmarked) [TG-37]	–
12.5 ± 0.6	4.5	–	–	CCOC(=O)C(C)(C)C(O)c1ccc(OCC2(C)CCc3c(C)c(OCC=C(C)C)c(C)c(C)c3O2)c(Br)c1 (centres unmarked) [TG-38]	> 50
7 ± 0.4	> 7.5	–	–	CC(C)=CCOc1c(C)c(C)c2c(c1C)CCC(C)(COc1ccc(C(O)C(C)(C)C(=O)O)cc1Br)O2 (centres unmarked) [TG-39]	–
> 50	> 7.5	–	–	CCOC(=O)C(=Cc1ccc(OCC2(C)CCc3c(C)c(OCC=C(C)C)c(C)c(C)c3O2)c(Br)c1)C(=O)OCC (centres unmarked) [TG-41]	> 50
16 ± 0.3	> 7.5	–	–	CC(C)=CCOc1c(C)c(C)c2c(c1C)CCC(C)(COc1ccc(C=C(C(=O)O)C(=O)O)cc1Br)O2 (centres unmarked) [TG-42]	> 50
3 ± 0.2	7.2	–	–	CC(C)=CCOc1c(C)c(C)c2c(c1C)CCC(C)(COc1ccc(/C=C3\SC(=O)NC3=O)c3ccccc13)O2 (centres unmarked) [TG-43]	–
5.1 ± 0.4	> 7.5	–	–	COc1cc(/C=C2\SC(=O)NC2=O)cc(Br)c1OCC1(C)CCc2c(C)c(OCC=C(C)C)c(C)c(C)c2O1 (centres unmarked) [TG-44]	–
4.6 ± 0.3	6.7	–	–	CCOc1cc(/C=C2\SC(=O)NC2=O)ccc1OCC1(C)CCc2c(C)c(OCC=C(C)C)c(C)c(C)c2O1 (centres unmarked) [TG-45]	–
5.3 ± 0.3	6.7	–	–	CC(C)=CCOc1c(C)c(C)c2c(c1C)CCC(C)(COc1ccc(/C=C3\SC(=S)NC3=O)c3ccccc13)O2 (centres unmarked) [TG-46]	–
6.8 ± 0.2	4.4	–	–	C=CCOc1c(C)c(C)c2c(c1C)CCC(C)(COc1cccc(/C=C3\SC(=O)NC3=O)c1)O2 (centres unmarked) [TG-51]	40
4.5 ± 0.2	7.5	–	–	C=CCOc1c(C)c(C)c2c(c1C)CCC(C)(COc1c(C)cc(/C=C3\SC(=O)NC3=O)cc1C)O2 (centres unmarked) [TG-52]	–
3.3 ± 0.3	3.4	–	–	C=CCOc1c(C)c(C)c2c(c1C)CCC(C)(COc1ccc(/C=C3\SC(=O)NC3=O)c3ccccc13)O2 (centres unmarked) [TG-53]	–
–	3.8	–	–	C=CCOc1c(C)c(C)c2c(c1C)CCC(C)(COc1c(Br)cc(/C=C3\SC(=O)NC3=O)cc1OC)O2 (centres unmarked) [TG-54]	–
–	> 7.5	–	–	C=CCOc1c(C)c(C)c2c(c1C)CCC(C)(COc1ccc(/C=C3\SC(=O)NC3=O)cc1OCC)O2 (centres unmarked) [TG-55]	–
4.4 ± 0.4	–	–	–	CC(C)=CCOc1c(C)c(C)c2c(c1C)CCC(C)(COc1ccc(/C=C3\SC(=S)NC3=O)cc1Br)O2 (centres unmarked) [TG-89]	–
–	–	> 50	> 50	CN(CCOc1ccc(C=C2SC(O)=NC2=O)cc1)c1ccccn1 [Δ2-RG, 5-{4-[2-(methyl-pyridin-2-yl-amino)-ethoxy]-benzylidene}-thiazolidine-2,4-dione]	–

Reference: patent US8309582B2, “Small molecule Bcl-Xl/Bcl-2 binding inhibitors” (The Ohio State University Research Foundation, priority 2004, dated 2012)
